# Experimental data published in patent publication US20200048259A1, “KDM5 INHIBITORS” (priority 2016, published 2020).
# Like-named read-outs stand apart in the source and are kept apart here.
# Molecular target: T1, Full-length KDM5B enzyme (Homo sapiens, UniProt Q9UGL1)
# T1 construct: recombinant protein from baculovirus-transfected Sf21 cells: full-length KDM5B; MW=176.825 kDa; host or cells: baculovirus-transfected Sf21 insect cells
# Test: KDM5B TR-FRET Enzyme Activity Assay (LANCE)
# Type: biochemical
# Method: KDM5B TR-FRET Enzyme Activity Assay
# KDM5B enzymatic activity was determined with the LANCE (Lanthanide Chelate Excite) TR-FRET (Time-resolved fluorescence resonance energy transfer) assay. […] Following a 30 minutes compound and enzyme incubation in a humidified chamber, each reaction was initiated by the addition of 1 μL 1× assay buffer containing […] biotinylated H3K4Me3 peptide, and 500 nM α-ketoglutarate. The final reaction in each well of 5 μL consists of 5 nM KDM5B, 500 nM biotinylated-peptide, and 500 nM α-ketoglutarate. De-methylation reactions were allowed to proceed for 60 minutes. Reactions were immediately quenched by the addition of 5 μL of 2× Lance Detection Buffer (PerkinElmer) with 0.5 mM EDTA and 2 nM of Eu-anti-H3K4Mel-2 antibody, and 30 nM of Streptavidin-conjugated Dylight 650 detection reagents. After 60 minutes incubation with detection reagents, reaction plates were read on a PerkinElmer EnVision plate reader using standard TR-FRET protocol. Briefly, excitation of donor molecules (Eu-chelate-anti-H3K4Me1-2-antibody) with a laser light source at 337 nm produces energy that can be transferred to Dylight-650 acceptor molecules if this donor:acceptor pair is within close proximity.
# Fluorescence intensity at both 665 nm (acceptor) and 615 nm (donor) are measured and a TR-FRET ratio calculated for each well (acceptor intensity/donor intensity). IC50 values were determined by 4 parameter robust fit of TR-FRET ratio values vs. (Log 10) compound concentrations.
# [1] = 5 nM full-length KDM5B, biotinylated H3K4Me3 peptide, 500 nM α-ketoglutarate, ten point titration 100000 nM to 5.08 nM, read-out: IC50
# T1 sequence (Q9UGL1 whole entry): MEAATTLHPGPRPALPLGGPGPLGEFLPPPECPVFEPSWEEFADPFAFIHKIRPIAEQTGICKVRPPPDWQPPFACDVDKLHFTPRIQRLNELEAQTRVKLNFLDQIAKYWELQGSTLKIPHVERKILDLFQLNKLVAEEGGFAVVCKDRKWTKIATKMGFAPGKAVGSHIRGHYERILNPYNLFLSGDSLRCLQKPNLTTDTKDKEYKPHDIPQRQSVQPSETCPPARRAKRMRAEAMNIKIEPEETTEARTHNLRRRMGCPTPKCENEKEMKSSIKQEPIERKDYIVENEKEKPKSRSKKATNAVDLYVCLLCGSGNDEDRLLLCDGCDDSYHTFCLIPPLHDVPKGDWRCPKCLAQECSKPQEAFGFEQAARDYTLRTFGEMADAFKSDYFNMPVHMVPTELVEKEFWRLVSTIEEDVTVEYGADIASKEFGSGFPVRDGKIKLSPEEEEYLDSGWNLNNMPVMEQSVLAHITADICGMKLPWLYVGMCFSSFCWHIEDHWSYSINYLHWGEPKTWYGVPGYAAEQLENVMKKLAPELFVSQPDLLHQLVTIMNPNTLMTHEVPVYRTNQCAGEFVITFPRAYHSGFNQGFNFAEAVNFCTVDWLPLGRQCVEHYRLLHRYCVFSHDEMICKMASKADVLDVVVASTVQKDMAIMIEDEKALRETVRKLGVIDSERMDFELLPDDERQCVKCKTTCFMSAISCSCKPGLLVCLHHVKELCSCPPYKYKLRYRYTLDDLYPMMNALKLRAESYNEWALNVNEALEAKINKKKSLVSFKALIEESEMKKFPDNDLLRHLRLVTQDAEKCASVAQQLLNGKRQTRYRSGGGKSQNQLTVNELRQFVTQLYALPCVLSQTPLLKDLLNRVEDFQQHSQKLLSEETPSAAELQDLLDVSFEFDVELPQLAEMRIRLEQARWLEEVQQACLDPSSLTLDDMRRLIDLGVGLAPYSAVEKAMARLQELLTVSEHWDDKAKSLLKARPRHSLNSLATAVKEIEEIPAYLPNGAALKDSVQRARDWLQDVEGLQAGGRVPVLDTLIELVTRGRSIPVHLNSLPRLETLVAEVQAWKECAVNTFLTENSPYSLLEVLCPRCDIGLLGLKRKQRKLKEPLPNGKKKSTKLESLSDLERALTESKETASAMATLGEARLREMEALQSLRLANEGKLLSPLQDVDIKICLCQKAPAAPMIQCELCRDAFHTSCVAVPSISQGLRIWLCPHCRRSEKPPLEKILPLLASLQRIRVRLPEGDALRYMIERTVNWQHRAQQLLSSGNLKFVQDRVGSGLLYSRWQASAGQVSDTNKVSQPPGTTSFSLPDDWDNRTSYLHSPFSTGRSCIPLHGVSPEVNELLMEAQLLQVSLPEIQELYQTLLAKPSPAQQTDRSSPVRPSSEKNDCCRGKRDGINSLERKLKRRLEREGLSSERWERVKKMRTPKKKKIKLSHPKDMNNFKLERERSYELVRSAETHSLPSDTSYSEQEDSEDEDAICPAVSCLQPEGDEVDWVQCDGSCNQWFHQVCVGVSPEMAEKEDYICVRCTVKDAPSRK
SMILES,IC50 [1] [µM],IC50 [µM]
"Cc1nc2[nH]c(C)c(C(C)C)c(=O)n2n1 [Example 7-21, 2,5-dimethyl-6-(1-methylethyl)[1,2,4]triazolo[1,5-a]pyrimidin-7(4H)-one]",7.99,–
"Cc1nc2[nH]c(CC3CCCC3)cc(=O)n2n1 [Example 7-56, 5-(cyclopentylmethyl)-2-methyl[1,2,4]triazolo[1,5-a]pyrimidin-7(4H)-one]",–,> 100
"Cc1[nH]c2nc(-c3ccco3)nn2c(=O)c1C(C)C [Example 7-27, 2-furan-2-yl-5-methyl-6-(1-methylethyl)[1,2,4]triazolo[1,5-a]pyrimidin-7(4H)-one]",–,> 100
"CCc1c(C)[nH]c2nc(C(=O)OC)nn2c1=O [Example 7-14, methyl 6-ethyl-5-methyl-7-oxo-4,7-dihydro[1,2,4]triazolo[1,5-a]pyrimidine-2-carboxylate]",34.9,–
"CCCCc1c(C)[nH]c2nc(C)nn2c1=O [Example 7-8, 6-butyl-2,5-dimethyl[1,2,4]triazolo[1,5-a]pyrimidin-7(4H)-one]",–,> 100
"Cc1[nH]c2nc(N)nn2c(=O)c1C(C)C [Example 7-16, 2-amino-5-methyl-6-(1-methylethyl)[1,2,4]triazolo[1,5-a]pyrimidin-7(4H)-one]",3.41,–
"Cc1nc2[nH]c(C3CCCCC3)cc(=O)n2n1 [Example 7-59, 5-cyclohexyl-2-methyl[1,2,4]triazolo[1,5-a]pyrimidin-7(4H)-one]",–,> 100
"CCc1[nH]c2nc(C)nn2c(=O)c1C [Example 7-47, 5-ethyl-2,6-dimethyl[1,2,4]triazolo[1,5-a]pyrimidin-7(4H)-one]",28.8,–
"Cc1[nH]c2nc(-c3ccccn3)nn2c(=O)c1C(C)C [Example 7-28, 5-methyl-6-(1-methylethyl)-2-pyridin-2-yl[1,2,4]triazolo[1,5-a]pyrimidin-7(4H)-one]",–,> 100
"CCc1c(C)[nH]c2nc(C)nn2c1=O [Example 7-5, 6-ethyl-2,5-dimethyl-[1,2,4]triazolo[1,5-a]pyrimidin-7(4H)-one]",27.8,–
"Cc1nc2[nH]c(C(F)(F)F)c(F)c(=O)n2n1 [Example 7-65, 6-fluoro-2-methyl-5-(trifluoromethyl)[1,2,4]triazolo[1,5-a]pyrimidin-7(4H)-one]",28.2,–
"Cc1[nH]c2nc(N3CCOCC3)nn2c(=O)c1C(C)C [Example 7-30, 5-methyl-6-(1-methylethyl)-2-morpholin-4-yl[1,2,4]triazolo[1,5-a]pyrimidin-7(4H)-one]",–,> 100
"CCc1c(C)[nH]c2nc(N)nn2c1=O [Example 7-3, 2-amino-6-ethyl-5-methyl-[1,2,4]triazolo[1,5-a]pyrimidin-7(4H)-one]",22.2,–
"Cc1nc2[nH]c(C3CCC3)c(C)c(=O)n2n1 [Example 7-68, 5-cyclobutyl-2,6-dimethyl[1,2,4]triazolo[1,5-a]pyrimidin-7(4H)-one]",22.8,–
"Cc1nc2[nH]c(C)c(F)c(=O)n2n1 [Example 7-50, 6-fluoro-2,5-dimethyl[1,2,4]triazolo[1,5-a]pyrimidin-7(4H)-one]",70.5,–
"Cc1nc2[nH]c(C)c(Cl)c(=O)n2n1 [Example 7-31, 6-chloro-2,5-dimethyl[1,2,4]triazolo[1,5-a]pyrimidin-7(4H)-one]",39.2,–
"CCc1c(C)[nH]c2nc(C(F)(F)F)nn2c1=O [Example 7-9, 6-ethyl-5-methyl-2-(trifluoromethyl)[1,2,4]triazolo[1,5-a]pyrimidin-7(4H)-one]",9.09,–
"Cc1nc2[nH]c(C(F)(F)F)c(C)c(=O)n2n1 [Example 7-48, 2,6-dimethyl-5-(trifluoromethyl)[1,2,4]triazolo[1,5-a]pyrimidin-7(4H)-one]",29.6,–
"Cc1[nH]c2nc(C3CC(F)(F)C3)nn2c(=O)c1C(C)C [Example 7-23, 2-(3,3-difluorocyclobutyl)-5-methyl-6-(1-methylethyl)[1,2,4]triazolo[1,5-a]pyrimidin-7(4H)-one]",–,> 100
"Cc1nc2[nH]c(C3CCCCC3)c(C)c(=O)n2n1 [Example 7-67, 5-cyclohexyl-2,6-dimethyl[1,2,4]triazolo[1,5-a]pyrimidin-7(4H)-one]",53.6,–
"Cc1[nH]c2nc(-c3ccc(C(F)(F)F)cc3)nn2c(=O)c1C(C)C [Example 7-25, 5-methyl-6-(1-methylethyl)-2-[4-(trifluoromethyl)phenyl][1,2,4]triazolo[1,5-a]pyrimidin-7(4H)-one]",67.6,–
"Cc1nc2[nH]c(-c3ccco3)cc(=O)n2n1 [Example 7-44, 5-furan-2-yl-2-methyl[1,2,4]triazolo[1,5-a]pyrimidin-7(4H)-one]",33.8,–
